Each structure is given as a SMILES string.

For the experiment, the target named is WRN [UniPro: Q14191 (WRN_HUMAN), N500-C946] (Homo sapiens (Human), UniProt Q14191). In words: WRN unwinding assay (FORKF DNA, fluorescence). The note with it: Table 14. It counts as biochemical. Here is the method: WRN unwinding assay was initiated to evaluate potential inhibitory effect of compounds for WEN helicase activity. WRN [UniPro: Q14191 (WRN_HUMAN), N500-C946] was expressed and purified in insect system and stored at −80° C. in aliquots. […] Compounds dissolved in DMSO (Sigma, D8418) were plated into a 96-well intermediate plate (BioFil, VWP-032-096) for 3-fold serial titration for 10 points using DMSO, and well-to-well transfer the titrated compounds into another 96-well intermediate plate including assay buffer in advance. Shake the 96-well intermediate plate at 600 rpm for 10 min. to fully mix. Specifically, a 3× working mixture of WRN was diluted to a concentration of 60 nM in assay buffer. […] After centrifuging at 1000 rpm and shaking at 500 rpm, the assay plate was pre-incubated for 30 min. Then, […] 3×FORKF DNA and ATP working mixture was dispensed into assay plate. Plate was sealed, centrifuged and incubated for an additional 40 min. at 25° C. […] Each concentration of compound was tested in duplicates in the assay plate. Average fluorescence signal of high control (Wells with 1% DMSO) was calculated as High Control (HC). Average fluorescence signal of low control (Wells with no WRN protein) was calculated as Low control (LC).
IC50 values were determined by fitting the data to the standard 4 parameters with Hill Slope using GraphPad Prism software.

WRN [UniPro: Q14191 (WRN_HUMAN), N500-C946], sequence (Q14191 500-946): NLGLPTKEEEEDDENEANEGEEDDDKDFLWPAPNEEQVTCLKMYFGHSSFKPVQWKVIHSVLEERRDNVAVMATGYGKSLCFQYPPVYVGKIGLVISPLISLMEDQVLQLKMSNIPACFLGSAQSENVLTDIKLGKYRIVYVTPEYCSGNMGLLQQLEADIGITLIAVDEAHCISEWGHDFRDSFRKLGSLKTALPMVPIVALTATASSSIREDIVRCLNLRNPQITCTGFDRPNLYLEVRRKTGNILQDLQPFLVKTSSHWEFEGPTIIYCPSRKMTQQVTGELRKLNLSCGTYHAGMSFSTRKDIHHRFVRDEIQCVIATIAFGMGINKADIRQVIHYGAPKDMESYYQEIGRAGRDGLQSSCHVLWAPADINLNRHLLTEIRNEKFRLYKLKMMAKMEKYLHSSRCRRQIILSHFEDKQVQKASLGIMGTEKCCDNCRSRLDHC

The molecule `CCc1c(N2CCN(C(=O)N(C)C)CC2)c(=O)n2nc(C3=CCOCC3)nc2n1CC(=O)Nc1ccc(C(F)(F)F)cc1Cl` [Example 10, 4-(4-(2-((2-Chloro-4-(trifluoromethyl)phenyl)amino)-2-oxoethyl)-2-(3,6-dihydro-2H-pyran-4-yl)-5-ethyl-7-oxo-4,7-dihydro-[1,2,4]triazolo[1,5-a]pyrimidin-6-yl)-N,N-dimethylpiperazine-1-carboxamide] yielded a 50% inhibitory concentration (IC50) greater than 1000 nM. As for `CCc1c(N2CCN(C(=O)C(C)O)CC2)c(=O)n2nc(C3=CCOCC3)nc2n1CC(=O)Nc1ccc(C(F)(F)F)cc1Cl` (stereo not shown) [Example 12, N-(2-Chloro-4-(trifluoromethyl)phenyl)-2-(2-(3,6-dihydro-2H-pyran-4-yl)-5-ethyl-6-(4-(2-hydroxypropanoyl)piperazin-1-yl)-7-oxo-[1,2,4]triazolo[1,5-a]pyrimidin-4(7H)-yl)acetamide], the figure is 100 to 1000 nM; as for `CCc1c(N2CCN(C(=O)C3CC3)CC2)c(=O)n2nc(C3=CCOCC3)nc2n1CC(=O)Nc1ccc(C(F)(F)F)cc1Cl` [Example 13, N-(2-Chloro-4-(trifluoromethyl)phenyl)-2-(6-(4-(cyclopropanecarbonyl)piperazin-1-yl)-2-(3,6-dihydro-2H-pyran-4-yl)-5-ethyl-7-oxo-[1,2,4]triazolo[1,5-a]pyrimidin-4(7H)-yl)acetamide], 100 to 1000 nM. For `CCNC(=O)N1CCN(c2c(CC)n(CC(=O)Nc3ccc(C(F)(F)F)cc3Cl)c3nc(C4=CCOCC4)nn3c2=O)CC1` [Example 15, 4-(4-(2-((2-Chloro-4-(trifluoromethyl)phenyl)amino)-2-oxoethyl)-2-(3,6-dihydro-2H-pyran-4-yl)-5-ethyl-7-oxo-4,7-dihydro-[1,2,4]triazolo[1,5-a]pyrimidin-6-yl)-N-ethylpiperazine-1-carboxamide] the value was 100 to 1000 nM. For `CCc1c(N2CCN(C(=O)CCO)CC2)c(=O)n2nc(C3=CCOCC3)nc2n1CC(=O)Nc1ccc(C(F)(F)F)cc1Cl` [Example 16, N-(2-Chloro-4-(trifluoromethyl)phenyl)-2-(2-(3,6-dihydro-2H-pyran-4-yl)-5-ethyl-6-(4-(3-hydroxypropanoyl)piperazin-1-yl)-7-oxo-[1,2,4]triazolo[1,5-a]pyrimidin-4(7H)-yl)acetamide] the value was 100 to 1000 nM; for `CCc1c(N2CCN(/C(=N\O)c3ncccc3F)CC2)c(=O)n2nc(C3=CCOCC3)nc2n1CC(=O)Nc1ccc(C(F)(F)F)cc1Cl` [Example 21, (Z)—N-(2-Chloro-4-(trifluoromethyl)phenyl)-2-(2-(3,6-dihydro-2H-pyran-4-yl)-5-ethyl-6-(4-((3-fluoropyridin-2-yl) (hydroxyimino)methyl)piperazin-1-yl)-7-oxo-[1,2,4]triazolo[1,5-a]pyrimidin-4(7H)-yl)acetamide], greater than 1000 nM; for `CCc1c(N2CCN(C(=O)NCC3CC3)CC2)c(=O)n2nc(C3=CCOCC3)nc2n1CC(=O)Nc1ccc(C(F)(F)F)cc1Cl` [Example 24, 4-(4-(2-((2-Chloro-4-(trifluoromethyl)phenyl)amino)-2-oxoethyl)-2-(3,6-dihydro-2H-pyran-4-yl)-5-ethyl-7-oxo-4,7-dihydro-[1,2,4]triazolo[1,5-a]pyrimidin-6-yl)-N-(cyclopropylmethyl)piperazine-1-carboxamide], 100 to 1000 nM.

On to `CCc1c(N2CCN(C(=O)Nc3c(C(F)(F)F)ncn3Cc3ccc(OC)cc3)CC2)c(=O)n2nc(C3=CCOCC3)nc2n1CC(=O)Nc1ccc(C(F)(F)F)cc1Cl` [Example 26, 4-(4-(2-((2-Chloro-4-(trifluoromethyl)phenyl)amino)-2-oxoethyl)-2-(3,6-dihydro-2H-pyran-4-yl)-5-ethyl-7-oxo-4,7-dihydro-[1,2,4]triazolo[1,5-a]pyrimidin-6-yl)-N-(1-(4-methoxybenzyl)-4-(trifluoromethyl)-1H-imidazol-5-yl)piperazine-1-carboxamide], for which the IC50 was greater than 1000 nM. For `CCNS(=O)(=O)N1CCN(c2c(CC)n(CC(=O)Nc3ccc(C(F)(F)F)cc3Cl)c3nc(C4=CCOCC4)nn3c2=O)CC1` [Example 33, N-(2-Chloro-4-(trifluoromethyl)phenyl)-2-(2-(3,6-dihydro-2H-pyran-4-yl)-5-ethyl-6-(4-(N-ethylsulfamoyl)piperazin-1-yl)-7-oxo-[1,2,4]triazolo[1,5-a]pyrimidin-4(7H)-yl)acetamide] the value was 100 to 1000 nM; for `CCc1c(N2CCN(C(=O)NS(=O)(=O)C3CC3)CC2)c(=O)n2nc(C3=CCOCC3)nc2n1CC(=O)Nc1ccc(C(F)(F)F)cc1Cl` [Example 34, 4-(4-(2-((2-Chloro-4-(trifluoromethyl)phenyl)amino)-2-oxoethyl)-2-(3,6-dihydro-2H-pyran-4-yl)-5-ethyl-7-oxo-4,7-dihydro-[1,2,4]triazolo[1,5-a]pyrimidin-6-yl)-N-(cyclopropylsulfonyl)piperazine-1-carboxamide], 100 to 1000 nM; for `CCc1c(N2CCN(C(=O)CN)CC2)c(=O)n2nc(C3=CCOCC3)nc2n1CC(=O)Nc1ccc(C(F)(F)F)cc1Cl` [Example 38, N-(2-Chloro-4-(trifluoromethyl)phenyl)-2-(2-(3,6-dihydro-2H-pyran-4-yl)-5-ethyl-6-(4-glycylpiperazin-1-yl)-7-oxo-[1,2,4]triazolo[1,5-a]pyrimidin-4(7H)-yl)acetamide], 100 to 1000 nM. `CCc1c(N2CCN(C(=O)CNS(=O)(=O)CC)CC2)c(=O)n2nc(C3=CCOCC3)nc2n1CC(=O)Nc1ccc(C(F)(F)F)cc1Cl` [Example 39, N-(2-Chloro-4-(trifluoromethyl)phenyl)-2-(2-(3,6-dihydro-2H-pyran-4-yl)-5-ethyl-6-(4-((ethylsulfonyl)glycyl)piperazin-1-yl)-7-oxo-[1,2,4]triazolo[1,5-a]pyrimidin-4(7H)-yl)acetamide] gave a 50% inhibitory concentration (IC50) of 100 to 1000 nM. As for `CCOC(=O)N1CCN(c2c(CC)n(CC(=O)Nc3ccc(C(F)(F)F)cc3Cl)c3nc(C4=CCOCC4)nn3c2=O)CC1` [Example 40, Ethyl 4-(4-(2-((2-chloro-4-(trifluoromethyl)phenyl)amino)-2-oxoethyl)-2-(3,6-dihydro-2H-pyran-4-yl)-5-ethyl-7-oxo-4,7-dihydro-[1,2,4]triazolo[1,5-a]pyrimidin-6-yl)piperazine-1-carboxylate], the figure is greater than 1000 nM.

The molecule `CCc1c(N2CCN(C(=O)c3cn(C)c(=O)n(C)c3=O)CC2)c(=O)n2nc(C3=CCOCC3)nc2n1CC(=O)Nc1ccc(C(F)(F)F)cc1Cl` [Example 51, N-(2-Chloro-4-(trifluoromethyl)phenyl)-2-(2-(3,6-dihydro-2H-pyran-4-yl)-6-(4-(1,3-dimethyl-2,4-dioxo-1,2,3,4-tetrahydropyrimidine-5-carbonyl)piperazin-1-yl)-5-ethyl-7-oxo-[1,2,4]triazolo[1,5-a]pyrimidin-4(7H)-yl)acetamide] displayed an IC50 greater than 1000 nM. As for `CCc1c(N2CCN(C(=O)c3cnc4ncnn4c3O)CC2)c(=O)n2nc(C3=CCOCC3)nc2n1CC(=O)Nc1ccc(C(F)(F)F)cc1Cl` [Example 52, N-(2-Chloro-4-(trifluoromethyl)phenyl)-2-(2-(3,6-dihydro-2H-pyran-4-yl)-5-ethyl-6-(4-(7-hydroxy-[1,2,4]triazolo[1,5-a]pyrimidine-6-carbonyl)piperazin-1-yl)-7-oxo-[1,2,4]triazolo[1,5-a]pyrimidin-4(7H)-yl)acetamide], the figure is greater than 1000 nM. As for `CCc1c(N2CCN(C(=O)CNC(=O)c3ccc(Cl)cc3Cl)CC2)c(=O)n2nc(C3=CCOCC3)nc2n1CC(=O)Nc1ccc(C(F)(F)F)cc1Cl` [Example 127, 2,4-Dichloro-N-(2-(4-(4-(2-((2-chloro-4-(trifluoromethyl)phenyl)amino)-2-oxoethyl)-2-(3,6-dihydro-2H-pyran-4-yl)-5-ethyl-7-oxo-4,7-dihydro-[1,2,4]triazolo[1,5-a]pyrimidin-6-yl)piperazin-1-yl)-2-oxoethyl)benzamide], the figure is 100 to 1000 nM. As for `CCc1c(N2CCN(C(=O)CN(C)C(=O)c3ccccc3)CC2)c(=O)n2nc(C3=CCOCC3)nc2n1CC(=O)Nc1ccc(C(F)(F)F)cc1Cl` [Example 135, N-(2-(4-(4-(2-((2-Chloro-4-(trifluoromethyl)phenyl)amino)-2-oxoethyl)-2-(3,6-dihydro-2H-pyran-4-yl)-5-ethyl-7-oxo-4,7-dihydro-[1,2,4]triazolo[1,5-a]pyrimidin-6-yl)piperazin-1-yl)-2-oxoethyl)-N-methylbenzamide], the figure is less than 100 nM; as for `CCc1c(N2CCN(C(=O)C(C)(C)NC(=O)c3ccccc3)CC2)c(=O)n2nc(C3=CCOCC3)nc2n1CC(=O)Nc1ccc(C(F)(F)F)cc1Cl` [Example 137, N-(1-(4-(4-(2-((2-Chloro-4-(trifluoromethyl)phenyl)amino)-2-oxoethyl)-2-(3,6-dihydro-2H-pyran-4-yl)-5-ethyl-7-oxo-4,7-dihydro-[1,2,4]triazolo[1,5-a]pyrimidin-6-yl)piperazin-1-yl)-2-methyl-1-oxopropan-2-yl)benzamide], greater than 1000 nM; as for `CCc1c(N2CCC3(CCN(C(=O)CNC(=O)c4ccccc4)C3)C2)c(=O)n2nc(C3=CCOCC3)nc2n1CC(=O)Nc1ccc(C(F)(F)F)cc1Cl` (stereo not shown) [Example 139, N-(2-(7-(4-(2-((2-Chloro-4-(trifluoromethyl)phenyl)amino)-2-oxoethyl)-2-(3,6-dihydro-2H-pyran-4-yl)-5-ethyl-7-oxo-4,7-dihydro-[1,2,4]triazolo[1,5-a]pyrimidin-6-yl)-2,7-diazaspiro[4.4]nonan-2-yl)-2-oxoethyl)benzamide], greater than 1000 nM.

The values above are taken from patent US20260015358A1, “BICYCLIC DERIVATIVES, COMPOSITIONS AND USES THEREOF” (Danatlas Pharmaceuticals Co., Ltd., priority 2023, published 2026).
